Reference: patent publication US20220202322A1, “DRUG RELEASE COMPOSITIONS AND METHODS FOR DELIVERY” (ABBOTT DIABETES CARE INC., priority 2020, published 2022)
Converted amounts (≈) assume the structure as drawn.

Assay: physchem
Format: physicochemical
Conditions: water
From the text: Conjugating dexamethasone to a water-soluble polymer makes dexamethasone water soluble, which allows for more consistent dispensing. […] As further shown in FIG. 22D, dispensing of the solution of 18 without a crosslinking agent (left panel) and with a crosslinking agent (right panel) was consistent and performed without difficulty.

**Q.** With C[C@@H]1C[C@H]2[C@@H]3CCC4=CC(=O)C=C[C@]4(C)[C@@]3(F)[C@@H](O)C[C@]2(C)[C@@]1(O)C(=O)CO [dexamethasone] as the compound, how does the solubility read?
**A.** Its solubility is 50 µg/mL (≈ 127 µM).
